Read-outs that look alike come from different tables or passages of the source.
Tests used:
[1] = test system: NB1691 neuroblastoma cell line; assay: Toxicity against neuroblastoma cell line NB1691; type: cell-based
Experimental: (§1) Compounds SM-73 and SM-85 are assayed against an array of neuroblastoma cell lines.

[2] = test system: Kelly neuroblastoma cell line; assay: Toxicity against neuroblastoma cell line Kelly; type: cell-based
Experimental: as §1

[3] = Rate of inactivation of platinums by glutathione; type: physicochemical; conditions: platinum drug 100 μM; [GSH] 6.75 mM; [NaCl] 4.62; absorption at 260 nm
Experimental: Platinum-based compound as described herein at a 100 μM concentration was reacted with physiological concentration of GSH and the absorption at 260 nm was measured to monitor the progress of the reaction. Absorption as a function of time (0≦t≦1440 min) for platinum concentration of zero was subtracted from the absorption at each platinum concentration. Initial rates were calculated from the early time points as change in absorption over change in time.
One major pathway by which these platinum drugs get inactivated in vivo is by reaction with glutathione (GSH). We mimicked this reaction with GSH in vitro using physiological concentrations of GSH and salts. Increase in absorption at 260 nm over period of time was monitored for progress of the reaction and initial rates were calculated from the early time points in terms of the change in absorption over change in time.

HEK-hOCT3 = assay: MTT cytotoxicity assay in HEK293 stably transfected with human OCT3; type: cell-based
Excerpt: HEK293 cell lines, stably expressing hOCT1, hOCT2 and hOCT3.

[4] = test system: SKNMC neuroblastoma cell line; assay: Toxicity against neuroblastoma cell line SKNMC; type: cell-based
Experimental: as §1

[5] = test system: SHSY5Y neuroblastoma cell line; assay: Toxicity against neuroblastoma cell line SHSY5Y; type: cell-based
Experimental: as §1

[6] = test system: SKNSH neuroblastoma cell line; assay: Toxicity against neuroblastoma cell line SKNSH; type: cell-based
Experimental: as §1

[7] = test system: LANS neuroblastoma cell line; assay: Toxicity against neuroblastoma cell line LANS; type: cell-based
Experimental: as §1

[8] = test system: HEK-MOCK (untransfected HEK293 cells); assay: MTT cytotoxicity assay in untransfected HEK293 cells; type: cell-based, human; conditions: 7 h drug exposure then 72 h drug-free
Experimental: (§2) Evaluation of compounds was carried out in an in-vitro cytotoxicity assay, involving a comparison between the effect of the platinum complex on human embryonic kidney cells (HEK293) transfected with human OCT1 (HEK-hOCT1) and OCT2 (HEK-hOCT2) versus those that are not transfected.
(§3) After overnight incubation, the platinum compound with or without an OCT inhibitor (disopyramide) was then be added to the culture medium to various concentrations. After exposure to the drug for 7 hours, the drug-containing medium was replaced with fresh, drug-free medium and the incubation was continued for 72 hours.
as §2, with “Evaluation of all three classes” for “Evaluation”

[9] = test system: SHEP neuroblastoma cell line; assay: Toxicity against neuroblastoma cell line SHEP; type: cell-based
Experimental: as §1

HEK-hNET = assay: Toxicity toward HEK cells stably transfected with Norepinephrine Transporter; type: cell-based, human; conditions: selectivity HEK-EV vs HEK-hNET
Experimental: The term “resistance factor” is a measure of selectivity conferred upon the platinum-based compound by the inclusion of ligands that promote recognition by NET.
as §3

[10] = test system: SW620 colon cancer cell line; assay: Cytotoxicity in colon cancer cell line SW620 with and without cimetidine; type: cell-based
Experimental: (§4) Platinum uptake and platinum-DNA adduct formation was then measured in these transfected cell lines. In some cases, chemical inhibitors of OCT1 were used. In general, we used disopyramide (150 μM). […] In some cases, cimetidine (3 mM) was used as a general OCT inhibitor. Cytotoxicity of some of the leads was determined in colon cancer cell lines. Described below in some detail are the methods for these studies.
(§5) HEK293 cell lines, stably expressing hOCT1, hOCT2 and hOCT3. The following colon cancer cell lines were also used: HCT116, RKO, DLD, HT29 and SW620 purchased from American Type Tissue Culture collection.
as §3

[11] = test system: DLD colon cancer cell line; assay: Cytotoxicity in colon cancer cell line DLD with and without cimetidine; type: cell-based
Experimental: as §4, §5, §3

[12] = test system: RKO colon cancer cell line; assay: Cytotoxicity in colon cancer cell line RKO with and without cimetidine; type: cell-based
Experimental: as §4, §5, §3

[13] = test system: HCT116 colon cancer cell line; assay: Cytotoxicity in colon cancer cell line HCT116 with and without cimetidine; type: cell-based
Experimental: as §4, §5, §3

[14] = test system: HT29 colon cancer cell line; assay: Cytotoxicity in colon cancer cell line HT29 with and without cimetidine; type: cell-based
Experimental: as §4, §5, §3

[15] = test system: HEK293 transfected with human OCT2 (HEK-hOCT2); assay: MTT cytotoxicity assay in HEK293 stably transfected with human OCT2; conditions: read-out: IC50 HEK-hOCT2; HEK293 stably transfected with human OCT2; MTT, 7 h exposure then 72 h
Experimental: as §2, §5, §3
as §2, with “Evaluation of all three classes” for “Evaluation”

[16] = test system: HEK293 transfected with human OCT1 (HEK-hOCT1); assay: MTT cytotoxicity assay in HEK293 stably transfected with human OCT1; conditions: read-out: IC50 HEK-hOCT1; HEK293 stably transfected with human OCT1; MTT, 7 h exposure then 72 h
Experimental: as §2, §5, §3
as §2, with “Evaluation of all three classes” for “Evaluation”

neuroblastoma xenografts = assay: Antitumor efficacy against neuroblastoma xenografts in mice; type: in vivo; conditions: compared to cisplatin (FIG. 8)
DNA in HEK cells = assay: DNA-binding of the platinum agents in HEK cells; type: cell-based, human; conditions: compared to cisplatin
Experimental: After incubation, genomic DNA was isolated from the cell pellets using Wizard® Genomic DNA Purification Kit (Promega, Madison, Wis.) following the manufacturer's instructions. The genomic DNA was used for determination of platinum (ICP-MS) and DNA content (absorption spectrometry at 260 nm). Platinum-DNA adduct formation was expressed as amount of platinum per amount of DNA.

NET-expressing HEK cells = assay: Uptake of platinum compounds into NET-expressing HEK cells vs empty vector HEK cells; type: cell-based, human
Excerpt: The success of our targeting strategy can be gauged in-vitro also through comparing the uptake of the platinum complex into cells. The actual effects of this increased uptake can in turn be ascertained and quantified through comparison of DNA-binding of the platinum complexes.
Accumulation was normalized to protein content.

[17] = Toxicity evaluation of treated mice (CBC, kidney and liver function, ototoxicity); conditions: mouse, in vivo
Experimental: An evaluation is being conducted in various body tissues/plasma to determine toxicity.
The SM-73 treated mice group was also evaluated for ototoxicity.

[18] = test system: OCT2 (human, expressed in the cells; OCT2-dependent cytotoxicity); assay: MTT cytotoxicity assay in HEK293 stably transfected with human OCT2; conditions: human
Experimental: as §2, §5, §3
as §2, with “Evaluation of all three classes” for “Evaluation”

[19] = test system: OCT1 (human, expressed in the cells; OCT1-dependent cytotoxicity); assay: MTT cytotoxicity assay in HEK293 stably transfected with human OCT1; conditions: human
Experimental: as §2, §5, §3
as §2, with “Evaluation of all three classes” for “Evaluation”

[20] = SW620, absence of cimetidine, read-out: IC50
[21] = SW620, cimetidine 3 mM, read-out: IC50 (in presence of cimetidine)
[22] = absence of cimetidine, read-out: IC50
[23] = cimetidine 3 mM, read-out: IC50 (in presence of cimetidine)
[24] = RK0, absence of cimetidine, read-out: IC50
[25] = RK0, cimetidine 3 mM, read-out: IC50 (in presence of cimetidine)
[26] = HCT116, absence of cimetidine, read-out: IC50
[27] = HCT116, cimetidine 3 mM, read-out: IC50 (in presence of cimetidine)
[28] = HT29, absence of cimetidine, read-out: IC50
[29] = HT29, cimetidine 3 mM, read-out: IC50 (in presence of cimetidine)

## N.N.[Cl][Pt][Cl] [Cisplatin]
[1]
  IC50: 12.4 µM
[2]
  IC50: 19.9 µM
[3]
  Initial Rate of reaction with glutathione: 0.1173 Absorption unit/hr
HEK-hOCT3
  IC50: 4.84 µM
[4]
  IC50: 9.63 µM
[5]
  IC50: 18.6 µM
[6]
  IC50: 3.77 µM
[7]
  IC50: 6.16 µM
[8]
  IC50: 2.62 µM
[9]
  IC50: 24.5 µM
HEK-hNET
  Resistance Factor: 1.8

## O=C1[O][Pt]2([NH][C@@H]3CCCC[C@H]3[NH]2)[O]C1=O [Oxaliplatin, reference compound]
[10]; [20]
  IC50: 7.16 ± 3.59 µM
[10]; [21]
  IC50: 40 µM
[1]
  IC50: 29.4 µM
[11]; [22]
  IC50: 21.5 ± 5.3 µM
[11]; [23]
  IC50: 151 µM
[2]
  IC50: 20.4 µM
[12]; [24]
  IC50: 2.9 ± 0.77 µM
[12]; [25]
  IC50: 41.7 µM
[3]
  Initial Rate of reaction with glutathione: 0.0909 Absorption unit/hr
HEK-hOCT3
  IC50: 1.32 µM
[4]
  IC50: 19.9 µM
[5]
  IC50: 18.8 µM
[6]
  IC50: 15.5 µM
[7]
  IC50: 15.9 µM
[8]
  IC50: 1.62 µM
[9]
  IC50: 24.8 µM
[13]; [26]
  IC50: 6.14 ± 1.8 µM
[13]; [27]
  IC50: 66.5 µM
[14]; [28]
  IC50: 13.2 ± 3.3 µM
[14]; [29]
  IC50: 61.2 µM

## [NH2][Pt]([NH2])([Cl])[N]1CCN(c2ccccc2)CC1 [SM71]
[15]
  IC50: 1.26 ± 0.319 µM
[16]
  IC50: 0.745 ± 0.003 µM

## [NH3+][Pt-2]([Cl])([Cl])[NH+]1CCN(c2ccccc2)CC1 [SM73]
Neuroblastoma xenografts
  antitumor efficacy against neuroblastoma xenografts: retains the antitumor efficacy of cisplatin to a significant extent
DNA in HEK cells
  DNA-binding: increased DNA-binding
[10]; [20]
  IC50: 33 ± 5.27 µM
[10]; [21]
  IC50: 147 µM
[10]; SW620, ratio of IC50 in presence and absence of cimetidine
  Resistance Factor: 4.45
[1]
  IC50: 9.72 µM
[11]; [22]
  IC50: 48.9 ± 8.5 µM
[11]; [23]
  IC50: 195 µM
[11]; ratio of IC50 in presence and absence of cimetidine
  Resistance Factor: 3.98
[2]
  IC50: 13.1 µM
[15]
  IC50: 0.005 ± 0.001 µM
[12]; [24]
  IC50: 19.6 ± 1.17 µM
[12]; [25]
  IC50: 75.8 µM
[12]; RK0, ratio of IC50 in presence and absence of cimetidine
  Resistance Factor: 3.87
[3]
  Initial Rate of reaction with glutathione: 0.1132 Absorption unit/hr
[16]
  IC50: 0.036 ± 0.004 µM
[4]
  IC50: 13.6 µM
NET-expressing HEK cells
  selectivity for accumulation into NET-expressing HEK cells: 3.25 fold
[5]
  IC50: 13.8 µM
[6]
  IC50: 3.58 µM
[7]
  IC50: 5.24 µM
[17]
  ototoxicity: No ototoxicity was observed
[8]
  IC50: 12.3 ± 0.759 µM
[9]
  IC50: 16.5 µM
HEK-hNET
  Resistance Factor: 5.5
[13]; [26]
  IC50: 18.3 ± 2.28 µM
[13]; [27]
  IC50: 71.2 µM
[13]; HCT116, ratio of IC50 in presence and absence of cimetidine
  Resistance Factor: 3.88
[14]; [28]
  IC50: 14.5 ± 8.54 µM
[14]; [29]
  IC50: 109 µM
[14]; HT29, ratio of IC50 in presence and absence of cimetidine
  Resistance Factor: >7

## [NH2][Pt]([NH2])([Cl])[N]1CCN(c2ccccc2)CC1 [SM78]
[18]; IC50 HEK-hOCT2, HEK293 stably transfected with human OCT2, MTT, 7 h exposure then 72 h
  IC50 at 7 h: 2.35 ± 0.313 µM
[19]; IC50 HEK-hOCT1, HEK293 stably transfected with human OCT1, MTT, 7 h exposure then 72 h
  IC50 at 7 h: 0.988 ± 0.03 µM

## [NH2][Pt]([Cl])([Cl])[N]1CCN(c2ccc(F)cc2)CC1 [SM85]
DNA in HEK cells
  DNA-binding: increased DNA-binding
[18]
  IC50 at 7 h: 0.208 ± 0.035 µM
[3]
  Initial Rate of reaction with glutathione: 0.1037 Absorption unit/hr
[19]
  IC50 at 7 h: 0.071 ± 0.014 µM
